From article PMC11481179, “Development and Application of Reversible and Irreversible Covalent Probes for Human and Mouse Cathepsin‐K Activity Detection, Revealing Nuclear Activity” (Advanced Science, 2024)

How the values were obtained:
Test in all cases: Recombinant cathepsin inhibition, residual activity labeled by pan cathepsin probe GB123, in-gel fluorescence
Assay type in all cases: biochemical
[1] = target: CTSB (Homo sapiens, UniProt P07858); settings: even at 10 µM
Description: (§1) Figure 1 In vitro evaluation of CTSK targeted compounds. a) Labeling of recombinant cathepsins by ABPs. Recombinant cathepsins were treated with increasing concentrations of ABPs for 1 h. Samples were separated by SDS‐PAGE and scanned for fluorescence by a Typhoon scanner at 635/670 nm. All probes show dose‐dependent binding to the CTSK, and have lower affinity to CTSS except GD36, b) CTSK [0.5–280 ng] was labeled with the indicated ABPs [5 µM]. Incubations were performed for 1 h at 37 °C, at pH 5.5. Samples were analyzed as described in (a). c) Recombinant cathepsins B, K, L, and S [0.5 µM] were first treated with the indicated concentrations of the inhibitor GD30 or vehicle for 1 h followed by incubation with a pan cathepsin probe GB123 [1 µM] for 1 h. Samples were analyzed as described in (a). d) Quantitative analysis of CTSK inhibition by GD30 presented in (d), data represent mean values ± standard error, n = 3. e) IC50 plot of GD30 inhibition of CTSK activity.
(§2) To further evaluate the probes for their selectivity, we applied a potent and selective covalent inhibitor, Compound 6 (GD30); the inhibitor was generated as a precursor of GD32 and GD36. GD30 was evaluated for its ability to block cathepsin activities by preincubating it with each recombinant enzyme before labeling it by a pan cathepsin ABP, GB123. […]
(§3) Recombinant cathepsin inhibition: Recombinant human CTSL, CTSB, CTSK, and CTSS (0.5 µM) were pretreated with different concentrations of inhibitors (GD30, ODN) for 1 h in reaction buffer (50 mM acetate, 4 mM DTT and 5 mM MgCl2, pH 5.5) at 37 °C. GB123, 1 µM, was added, and incubated with samples for 1 h at 37 °C. The reaction was stopped by the addition of sample buffer 4x (40% glycerol, 0.2 M Tris/HCl pH 6.8, 20% beta-mercaptoethanol, 12% SDS, and 0.4 mg/ml bromophenol blue). Samples were then boiled at 95 °C for 2 mins, separated on a 12.5% SDS gel, and scanned for fluorescence by a Typhoon scanner FLA 9500 at excitation/emission wavelengths of 635/670 nm.
(§4) Recombinant cathepsin labeling: Recombinant human CTSL, CTSB, CTSK, and CTSS (0.5 µM) were pretreated with different concentrations of probes (GD32, GD36, GD37, or GD42)

[2] = target: T1, CTSK (Homo sapiens, UniProt P43235); settings: CTSK 0.5 µM, 1 h preincubation, then GB123 1 µM 1 h, pH 5.5
T1 sequence (P43235 115-329): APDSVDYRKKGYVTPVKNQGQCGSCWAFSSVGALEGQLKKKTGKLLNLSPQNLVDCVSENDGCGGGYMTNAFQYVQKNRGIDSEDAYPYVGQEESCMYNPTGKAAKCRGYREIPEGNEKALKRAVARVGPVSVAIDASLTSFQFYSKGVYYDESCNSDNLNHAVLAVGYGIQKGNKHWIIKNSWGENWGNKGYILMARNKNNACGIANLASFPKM
Description: as §1, §2, §3, §4

[3] = target: CTSL (Homo sapiens, UniProt P07711); settings: even at 10 µM
Description: as §1, §2, §3, §4

[4] = target: CTSS (Homo sapiens, UniProt P25774); settings: even at 10 µM
Description: as §1, §2, §3, §4

CTSL, sequence (P07711 114-333): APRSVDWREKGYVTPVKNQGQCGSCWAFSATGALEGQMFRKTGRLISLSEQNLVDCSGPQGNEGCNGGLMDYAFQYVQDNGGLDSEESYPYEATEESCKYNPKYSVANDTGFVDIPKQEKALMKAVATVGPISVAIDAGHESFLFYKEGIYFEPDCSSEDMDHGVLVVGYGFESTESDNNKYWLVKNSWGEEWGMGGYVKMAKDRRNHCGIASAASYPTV
CTSS, sequence (P25774 115-331): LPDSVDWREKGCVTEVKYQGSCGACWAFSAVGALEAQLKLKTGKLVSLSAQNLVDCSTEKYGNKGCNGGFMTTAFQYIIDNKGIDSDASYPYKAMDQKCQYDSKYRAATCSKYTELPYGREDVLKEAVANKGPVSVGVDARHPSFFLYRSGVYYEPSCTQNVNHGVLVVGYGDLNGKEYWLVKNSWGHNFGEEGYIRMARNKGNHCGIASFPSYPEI

SMILES: C#CCNC(=O)[C@H](CC(C)C)N[C@@H](c1ccc(-c2ccc(S(=O)(=O)CCNC(=O)OC(C)(C)C)cc2)cc1)C(F)(F)F [GD30]
- inhibition of recombinant cathepsin [1]: not inhibiting
- IC50 [2]: 561 nM
- inhibition of recombinant cathepsin [3]: not inhibiting
- inhibition of recombinant cathepsin [4]: not inhibiting
